Reference: the kinase profiling compilation of Christmann-Franck et al. (2016)
Blank lines part the entries; values can stand above or below the compound they belong to.

What was measured:
Assay in all cases: radiometric filter-binding kinase assay
MAPKAPK5 (human) = MAPKAPK5 (human) (UniProt Q8IW41)
DYRK3 (human) = DYRK3 (human) (UniProt O43781)
DAPK1 (human) = DAPK1 (human) (UniProt P53355)
MARK2 (human) = MARK2 (human) (UniProt Q7KZI7)
PIM1 (human) = PIM1 (human) (UniProt P11309)
MAPKAPK2 (human) = MAPKAPK2 (human) (UniProt P49137)
MAPK12 (human) = MAPK12 (human) (UniProt P53778)
EPHA2 (human) = EPHA2 (human) (UniProt P29317)
PRKCA (human) = PRKCA (human) (UniProt P17252)
MYLK (human) = MYLK (human) (UniProt Q15746)
EPHB2 (human) = EPHB2 (human) (UniProt P29323)
CLK2 (human) = CLK2 (human) (UniProt P49760)
NEK2 (human) = NEK2 (human) (UniProt P51955)
TAOK1 (human) = TAOK1 (human) (UniProt Q7L7X3)
IKBKE (human) = IKBKE (human) (UniProt Q14164)
GCK (human) = GCK (human) (UniProt Q12851)
FLT1 (human) = FLT1 (human) (UniProt P17948)
EPHB1 (human) = EPHB1 (human) (UniProt P54762)
DYRK2 (human) = DYRK2 (human) (UniProt Q92630)
[1] = system: RPS6KB1 (human), P23443 [T412E]
TTK (human) = TTK (human) (UniProt P33981)
RPS6KA1 KD1 KD2 (human) = RPS6KA1 KD1 KD2 (human) (UniProt Q15418)
MELK (human) = MELK (human) (UniProt Q14680)
MARK1 (human) = MARK1 (human) (UniProt Q9P0L2)
CHEK2 (human) = CHEK2 (human) (UniProt O96017)
PKN2 (human) = PKN2 (human) (UniProt Q16513)
STK3 (human) = STK3 (human) (UniProt Q13188)
IRAK4 (human) = IRAK4 (human) (UniProt Q9NWZ3)
MAP3K7 TAB1 (human) = MAP3K7 TAB1 (human) (UniProt Q15750+O43318)
MAPK14 (human) = MAPK14 (human) (UniProt Q16539)
HIPK2 (human) = HIPK2 (human) (UniProt Q9H2X6)
ROCK2 (rat) = conditions: accession and sequence are those of the human protein
[2] = system: SGK1 (human), O00141 [S422D]
PIM3 (human) = PIM3 (human) (UniProt Q86V86)
EPHB4 (human) = EPHB4 (human) (UniProt P54760)

GCK (human), sequence (Q12851 whole entry, looked up): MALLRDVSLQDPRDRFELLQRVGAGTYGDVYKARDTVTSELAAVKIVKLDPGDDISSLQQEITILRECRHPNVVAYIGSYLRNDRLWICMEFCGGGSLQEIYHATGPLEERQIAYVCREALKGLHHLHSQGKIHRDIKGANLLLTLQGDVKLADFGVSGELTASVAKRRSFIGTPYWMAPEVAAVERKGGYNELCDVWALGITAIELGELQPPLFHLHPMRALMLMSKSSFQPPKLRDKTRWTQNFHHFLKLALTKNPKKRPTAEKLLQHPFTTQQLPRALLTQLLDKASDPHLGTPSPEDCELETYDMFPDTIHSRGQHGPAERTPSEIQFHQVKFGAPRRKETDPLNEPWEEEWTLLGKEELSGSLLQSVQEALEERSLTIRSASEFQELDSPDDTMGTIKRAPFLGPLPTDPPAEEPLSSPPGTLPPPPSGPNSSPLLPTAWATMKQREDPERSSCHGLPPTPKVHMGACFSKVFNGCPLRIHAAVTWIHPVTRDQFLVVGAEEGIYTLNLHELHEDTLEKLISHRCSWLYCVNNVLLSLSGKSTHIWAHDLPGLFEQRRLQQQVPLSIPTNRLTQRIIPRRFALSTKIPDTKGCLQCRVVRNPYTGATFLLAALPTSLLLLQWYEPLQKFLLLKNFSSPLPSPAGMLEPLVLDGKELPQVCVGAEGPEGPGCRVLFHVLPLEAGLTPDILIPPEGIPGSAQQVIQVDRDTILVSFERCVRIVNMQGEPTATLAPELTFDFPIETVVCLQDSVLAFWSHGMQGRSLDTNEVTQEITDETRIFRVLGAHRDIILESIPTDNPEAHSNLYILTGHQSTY
TAOK1 (human), sequence (Q7L7X3 whole entry, looked up): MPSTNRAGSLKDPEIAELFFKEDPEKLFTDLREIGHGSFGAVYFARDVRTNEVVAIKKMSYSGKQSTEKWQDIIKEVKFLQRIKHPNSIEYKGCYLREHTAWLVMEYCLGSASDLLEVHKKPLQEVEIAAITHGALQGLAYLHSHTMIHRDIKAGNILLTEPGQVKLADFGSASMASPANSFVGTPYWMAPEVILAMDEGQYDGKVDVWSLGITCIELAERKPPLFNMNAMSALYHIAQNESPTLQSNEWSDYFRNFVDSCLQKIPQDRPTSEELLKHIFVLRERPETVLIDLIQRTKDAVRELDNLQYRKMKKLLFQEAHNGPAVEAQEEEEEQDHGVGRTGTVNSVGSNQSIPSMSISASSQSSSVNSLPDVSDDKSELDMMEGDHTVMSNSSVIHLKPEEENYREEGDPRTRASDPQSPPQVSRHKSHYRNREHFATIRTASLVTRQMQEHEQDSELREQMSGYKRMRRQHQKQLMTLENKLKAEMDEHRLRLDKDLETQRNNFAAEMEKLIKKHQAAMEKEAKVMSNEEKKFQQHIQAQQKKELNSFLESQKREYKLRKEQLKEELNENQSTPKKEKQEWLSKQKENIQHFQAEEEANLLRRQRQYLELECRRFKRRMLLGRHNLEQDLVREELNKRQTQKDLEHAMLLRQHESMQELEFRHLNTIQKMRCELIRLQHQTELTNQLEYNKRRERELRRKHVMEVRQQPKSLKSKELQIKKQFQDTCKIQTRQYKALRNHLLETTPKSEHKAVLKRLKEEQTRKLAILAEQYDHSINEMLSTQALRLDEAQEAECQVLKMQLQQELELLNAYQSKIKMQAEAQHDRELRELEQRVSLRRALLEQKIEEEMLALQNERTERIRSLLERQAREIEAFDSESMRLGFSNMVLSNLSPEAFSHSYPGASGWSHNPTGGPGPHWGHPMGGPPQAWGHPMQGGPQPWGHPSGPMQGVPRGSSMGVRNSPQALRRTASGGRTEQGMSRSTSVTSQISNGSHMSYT
MARK2 (human), sequence (Q7KZI7 whole entry, looked up): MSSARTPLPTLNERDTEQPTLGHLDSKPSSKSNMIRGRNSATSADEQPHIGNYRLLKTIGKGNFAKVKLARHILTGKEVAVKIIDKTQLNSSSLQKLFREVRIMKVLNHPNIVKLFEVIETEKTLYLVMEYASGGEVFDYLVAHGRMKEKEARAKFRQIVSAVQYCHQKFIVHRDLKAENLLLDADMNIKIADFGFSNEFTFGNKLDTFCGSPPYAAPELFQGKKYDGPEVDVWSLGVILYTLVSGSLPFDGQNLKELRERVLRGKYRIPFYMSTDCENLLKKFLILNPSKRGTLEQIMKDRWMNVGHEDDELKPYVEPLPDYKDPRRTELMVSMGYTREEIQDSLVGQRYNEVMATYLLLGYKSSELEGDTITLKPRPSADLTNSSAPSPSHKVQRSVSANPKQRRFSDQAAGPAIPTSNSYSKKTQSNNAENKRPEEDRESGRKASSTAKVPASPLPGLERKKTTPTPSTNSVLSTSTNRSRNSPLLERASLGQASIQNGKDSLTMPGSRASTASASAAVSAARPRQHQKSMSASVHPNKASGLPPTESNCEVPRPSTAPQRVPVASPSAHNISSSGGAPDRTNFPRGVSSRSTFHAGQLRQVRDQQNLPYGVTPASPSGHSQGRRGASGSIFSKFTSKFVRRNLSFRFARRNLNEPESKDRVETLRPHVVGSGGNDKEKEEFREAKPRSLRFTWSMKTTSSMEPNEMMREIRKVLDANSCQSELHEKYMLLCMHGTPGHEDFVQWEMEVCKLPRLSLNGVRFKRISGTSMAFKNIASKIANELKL
MAPKAPK5 (human), sequence (Q8IW41 whole entry, looked up): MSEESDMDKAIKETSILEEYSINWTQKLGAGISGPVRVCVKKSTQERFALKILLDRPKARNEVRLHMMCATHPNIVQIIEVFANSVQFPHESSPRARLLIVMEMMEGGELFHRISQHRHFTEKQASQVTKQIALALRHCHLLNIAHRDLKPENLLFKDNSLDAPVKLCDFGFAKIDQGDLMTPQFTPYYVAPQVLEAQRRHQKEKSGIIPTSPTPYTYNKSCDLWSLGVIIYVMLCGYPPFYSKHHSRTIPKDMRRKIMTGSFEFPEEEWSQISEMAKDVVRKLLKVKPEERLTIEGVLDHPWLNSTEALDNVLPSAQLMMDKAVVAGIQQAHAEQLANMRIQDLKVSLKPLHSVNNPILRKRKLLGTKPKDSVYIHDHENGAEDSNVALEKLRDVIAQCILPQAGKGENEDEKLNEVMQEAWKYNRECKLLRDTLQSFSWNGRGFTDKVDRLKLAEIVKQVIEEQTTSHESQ
DAPK1 (human), sequence (P53355 whole entry, looked up): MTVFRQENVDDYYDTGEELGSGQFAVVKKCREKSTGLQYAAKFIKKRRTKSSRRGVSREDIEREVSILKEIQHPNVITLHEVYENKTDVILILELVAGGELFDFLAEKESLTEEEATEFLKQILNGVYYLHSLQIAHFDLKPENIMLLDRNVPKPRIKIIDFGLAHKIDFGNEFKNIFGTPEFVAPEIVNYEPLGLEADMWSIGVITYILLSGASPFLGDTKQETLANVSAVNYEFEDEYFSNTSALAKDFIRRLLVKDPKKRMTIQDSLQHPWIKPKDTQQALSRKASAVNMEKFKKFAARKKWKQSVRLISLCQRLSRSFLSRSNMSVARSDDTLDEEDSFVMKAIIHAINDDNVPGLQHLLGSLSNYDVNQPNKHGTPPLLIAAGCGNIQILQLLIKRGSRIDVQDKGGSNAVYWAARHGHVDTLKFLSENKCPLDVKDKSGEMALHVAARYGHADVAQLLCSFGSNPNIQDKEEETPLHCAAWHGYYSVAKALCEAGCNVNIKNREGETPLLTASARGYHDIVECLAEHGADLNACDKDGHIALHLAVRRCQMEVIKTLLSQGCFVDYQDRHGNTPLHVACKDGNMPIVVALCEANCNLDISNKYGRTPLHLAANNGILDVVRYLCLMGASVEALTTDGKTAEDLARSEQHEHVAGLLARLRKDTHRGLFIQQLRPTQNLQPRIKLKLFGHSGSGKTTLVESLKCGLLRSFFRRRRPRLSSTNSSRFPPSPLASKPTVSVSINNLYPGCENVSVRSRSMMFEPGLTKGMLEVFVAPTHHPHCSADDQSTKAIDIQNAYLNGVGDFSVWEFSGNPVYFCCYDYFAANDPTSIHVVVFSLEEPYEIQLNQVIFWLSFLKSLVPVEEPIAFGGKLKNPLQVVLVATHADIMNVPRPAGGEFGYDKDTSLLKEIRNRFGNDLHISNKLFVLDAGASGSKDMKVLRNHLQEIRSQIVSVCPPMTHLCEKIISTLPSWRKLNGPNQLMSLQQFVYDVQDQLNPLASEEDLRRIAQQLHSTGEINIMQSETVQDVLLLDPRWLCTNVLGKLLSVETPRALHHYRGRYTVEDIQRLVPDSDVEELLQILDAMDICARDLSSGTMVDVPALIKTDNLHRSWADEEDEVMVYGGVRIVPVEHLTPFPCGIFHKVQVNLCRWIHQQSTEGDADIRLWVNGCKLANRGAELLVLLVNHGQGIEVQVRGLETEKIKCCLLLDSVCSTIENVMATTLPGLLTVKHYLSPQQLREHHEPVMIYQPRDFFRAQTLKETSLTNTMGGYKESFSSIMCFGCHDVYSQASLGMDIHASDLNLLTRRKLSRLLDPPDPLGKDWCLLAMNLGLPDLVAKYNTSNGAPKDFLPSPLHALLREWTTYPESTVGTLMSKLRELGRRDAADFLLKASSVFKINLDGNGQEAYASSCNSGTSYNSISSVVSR

- residual activity (MAPKAPK5 (human); compound 1.0 µM): 82%
- residual activity (MAPKAPK5 (human); compound 10.0 µM): 89%
- residual activity (DYRK3 (human); compound 1.0 µM): 57%
- residual activity (DYRK3 (human); compound 10.0 µM): 64%
- residual activity (DAPK1 (human); compound 1.0 µM): 84%
- residual activity (DAPK1 (human); compound 10.0 µM): 88%
- residual activity (MARK2 (human); compound 1.0 µM): 101%
- residual activity (MARK2 (human); compound 10.0 µM): 95%
- residual activity (PIM1 (human); compound 1.0 µM): 81%
- residual activity (PIM1 (human); compound 10.0 µM): 73%
- residual activity (MAPKAPK2 (human); compound 1.0 µM): 115%
- residual activity (MAPK12 (human); compound 1.0 µM): 88%
- residual activity (MAPK12 (human); compound 10.0 µM): 100%
- residual activity (EPHA2 (human); compound 1.0 µM): 69%
- residual activity (EPHA2 (human); compound 10.0 µM): 81%
- residual activity (PRKCA (human); compound 1.0 µM): 101%
- residual activity (PRKCA (human); compound 10.0 µM): 94%
- residual activity (MYLK (human); compound 1.0 µM): 87%
- residual activity (MYLK (human); compound 10.0 µM): 100%
- residual activity (EPHB2 (human); compound 1.0 µM): 93%
- residual activity (EPHB2 (human); compound 10.0 µM): 95%
- residual activity (CLK2 (human); compound 1.0 µM): 75%
- residual activity (CLK2 (human); compound 10.0 µM): 91%
- residual activity (NEK2 (human); compound 1.0 µM): 108%
- residual activity (NEK2 (human); compound 10.0 µM): 103%
- residual activity (TAOK1 (human); compound 1.0 µM): 91%
- residual activity (TAOK1 (human); compound 10.0 µM): 94%
- residual activity (IKBKE (human); compound 1.0 µM): 111%
- residual activity (IKBKE (human); compound 10.0 µM): 97%
- residual activity (GCK (human); compound 1.0 µM): 22%
- residual activity (GCK (human); compound 10.0 µM): 11%
- residual activity (FLT1 (human); compound 1.0 µM): 87%
- residual activity (FLT1 (human); compound 10.0 µM): 107%
- residual activity (EPHB1 (human); compound 1.0 µM): 93%
- residual activity (EPHB1 (human); compound 10.0 µM): 119%
- residual activity (DYRK2 (human); compound 1.0 µM): 73%
- residual activity (DYRK2 (human); compound 10.0 µM): 85%
- residual activity ([1]; compound 1.0 µM): 91%
- residual activity ([1]; compound 10.0 µM): 96%
- residual activity (TTK (human); compound 1.0 µM): 91%
- residual activity (TTK (human); compound 10.0 µM): 86%
- residual activity (RPS6KA1 KD1 KD2 (human); compound 1.0 µM): 96%
- residual activity (RPS6KA1 KD1 KD2 (human); compound 10.0 µM): 73%
- residual activity (MELK (human); compound 1.0 µM): 49%
- residual activity (MELK (human); compound 10.0 µM): 49%
- residual activity (MARK1 (human); compound 1.0 µM): 96%
- residual activity (MARK1 (human); compound 10.0 µM): 114%
- residual activity (CHEK2 (human); compound 1.0 µM): 95%
- residual activity (CHEK2 (human); compound 10.0 µM): 94%
- residual activity (PKN2 (human); compound 1.0 µM): 90%
- residual activity (PKN2 (human); compound 10.0 µM): 84%
- residual activity (STK3 (human); compound 1.0 µM): 64%
- residual activity (STK3 (human); compound 10.0 µM): 49%
- residual activity (IRAK4 (human); compound 1.0 µM): 90%
- residual activity (IRAK4 (human); compound 10.0 µM): 89%
- residual activity (MAP3K7 TAB1 (human); compound 1.0 µM): 64%
- residual activity (MAP3K7 TAB1 (human); compound 10.0 µM): 78%
- residual activity (MAPK14 (human); compound 1.0 µM): 93%
- residual activity (MAPK14 (human); compound 10.0 µM): 134%
- residual activity (HIPK2 (human); compound 1.0 µM): 99%
- residual activity (HIPK2 (human); compound 10.0 µM): 114%
- residual activity (ROCK2 (rat); compound 1.0 µM): 120%
- residual activity (ROCK2 (rat); compound 10.0 µM): 104%
- residual activity ([2]; compound 1.0 µM): 96%
- residual activity ([2]; compound 10.0 µM): 82%
- residual activity (PIM3 (human); compound 1.0 µM): 67%
- residual activity (PIM3 (human); compound 10.0 µM): 55%
- residual activity (EPHB4 (human); compound 1.0 µM): 102%
- residual activity (EPHB4 (human); compound 10.0 µM): 96%
SMILES: CC(C)(C#N)c1ccc(N2C(=O)OCc3cnc4ccc(-c5cnc6ccccc6c5)cc4c32)cc1

- residual activity (MAPKAPK5 (human); compound 0.1 µM): 96%
- residual activity (MAPKAPK5 (human); compound 1.0 µM): 94%
- residual activity (MAPKAPK5 (human); compound 10.0 µM): 96%
- residual activity (DYRK3 (human); compound 0.1 µM): 89%
- residual activity (DYRK3 (human); compound 1.0 µM): 78%
- residual activity (DYRK3 (human); compound 10.0 µM): 43%
- residual activity (DAPK1 (human); compound 0.1 µM): 99%
- residual activity (DAPK1 (human); compound 1.0 µM): 96%
- residual activity (DAPK1 (human); compound 10.0 µM): 63%
- residual activity (MARK2 (human); compound 0.1 µM): 81%
- residual activity (MARK2 (human); compound 1.0 µM): 87%
- residual activity (MARK2 (human); compound 10.0 µM): 44%
- residual activity (PIM1 (human); compound 0.1 µM): 54%
- residual activity (PIM1 (human); compound 1.0 µM): 49%
- residual activity (PIM1 (human); compound 10.0 µM): 11%
- residual activity (MAPKAPK2 (human); compound 0.1 µM): 98%
- residual activity (MAPKAPK2 (human); compound 1.0 µM): 86%
- residual activity (MAPKAPK2 (human); compound 10.0 µM): 80%
- residual activity (MAPK12 (human); compound 0.1 µM): 77%
- residual activity (MAPK12 (human); compound 1.0 µM): 80%
- residual activity (MAPK12 (human); compound 10.0 µM): 45%
- residual activity (EPHA2 (human); compound 0.1 µM): 46%
- residual activity (EPHA2 (human); compound 1.0 µM): 36%
- residual activity (EPHA2 (human); compound 10.0 µM): 13%
- residual activity (PRKCA (human); compound 0.1 µM): 41%
- residual activity (PRKCA (human); compound 1.0 µM): 45%
- residual activity (PRKCA (human); compound 10.0 µM): 11%
- residual activity (MYLK (human); compound 0.1 µM): 51%
- residual activity (MYLK (human); compound 1.0 µM): 43%
- residual activity (MYLK (human); compound 10.0 µM): 5%
- residual activity (EPHB2 (human); compound 0.1 µM): 11%
- residual activity (EPHB2 (human); compound 1.0 µM): 4%
- residual activity (EPHB2 (human); compound 10.0 µM): 4%
- residual activity (CLK2 (human); compound 0.1 µM): 3%
- residual activity (CLK2 (human); compound 1.0 µM): 3%
- residual activity (CLK2 (human); compound 10.0 µM): 1%
- residual activity (NEK2 (human); compound 0.1 µM): 108%
- residual activity (NEK2 (human); compound 1.0 µM): 87%
- residual activity (NEK2 (human); compound 10.0 µM): 71%
- residual activity (TAOK1 (human); compound 0.1 µM): 42%
- residual activity (TAOK1 (human); compound 1.0 µM): 33%
- residual activity (IKBKE (human); compound 0.1 µM): 91%
- residual activity (IKBKE (human); compound 1.0 µM): 80%
- residual activity (IKBKE (human); compound 10.0 µM): 76%
- residual activity (GCK (human); compound 0.1 µM): 101%
- residual activity (GCK (human); compound 1.0 µM): 93%
- residual activity (GCK (human); compound 10.0 µM): 33%
- residual activity (FLT1 (human); compound 0.1 µM): 56%
- residual activity (FLT1 (human); compound 1.0 µM): 52%
- residual activity (FLT1 (human); compound 10.0 µM): 19%
- residual activity (EPHB1 (human); compound 0.1 µM): 53%
- residual activity (EPHB1 (human); compound 1.0 µM): 36%
- residual activity (DYRK2 (human); compound 0.1 µM): 101%
- residual activity (DYRK2 (human); compound 1.0 µM): 87%
- residual activity (DYRK2 (human); compound 10.0 µM): 80%
- residual activity ([1]; compound 0.1 µM): 95%
- residual activity ([1]; compound 1.0 µM): 92%
- residual activity ([1]; compound 10.0 µM): 11%
- residual activity (TTK (human); compound 0.1 µM): 75%
- residual activity (TTK (human); compound 1.0 µM): 73%
- residual activity (TTK (human); compound 10.0 µM): 42%
- residual activity (RPS6KA1 KD1 KD2 (human); compound 0.1 µM): 31%
- residual activity (RPS6KA1 KD1 KD2 (human); compound 1.0 µM): 29%
- residual activity (RPS6KA1 KD1 KD2 (human); compound 10.0 µM): 6%
- residual activity (MELK (human); compound 0.1 µM): 42%
- residual activity (MELK (human); compound 1.0 µM): 15%
- residual activity (MELK (human); compound 10.0 µM): 5%
- residual activity (MARK1 (human); compound 0.1 µM): 70%
- residual activity (MARK1 (human); compound 1.0 µM): 78%
- residual activity (MARK1 (human); compound 10.0 µM): 58%
- residual activity (CHEK2 (human); compound 0.1 µM): 20%
- residual activity (CHEK2 (human); compound 1.0 µM): 18%
- residual activity (CHEK2 (human); compound 10.0 µM): 4%
- residual activity (PKN2 (human); compound 0.1 µM): 80%
- residual activity (PKN2 (human); compound 1.0 µM): 78%
- residual activity (PKN2 (human); compound 10.0 µM): 32%
- residual activity (STK3 (human); compound 0.1 µM): 16%
- residual activity (STK3 (human); compound 1.0 µM): 19%
- residual activity (STK3 (human); compound 10.0 µM): 3%
- residual activity (IRAK4 (human); compound 0.1 µM): 5%
- residual activity (IRAK4 (human); compound 1.0 µM): 3%
- residual activity (IRAK4 (human); compound 10.0 µM): 2%
- residual activity (MAP3K7 TAB1 (human); compound 0.1 µM): 107%
- residual activity (MAP3K7 TAB1 (human); compound 1.0 µM): 84%
- residual activity (MAP3K7 TAB1 (human); compound 10.0 µM): 27%
- residual activity (MAPK14 (human); compound 0.1 µM): 101%
- residual activity (MAPK14 (human); compound 1.0 µM): 89%
- residual activity (MAPK14 (human); compound 10.0 µM): 47%
- residual activity (HIPK2 (human); compound 0.1 µM): 14%
- residual activity (HIPK2 (human); compound 1.0 µM): 13%
- residual activity (HIPK2 (human); compound 10.0 µM): 5%
- residual activity (ROCK2 (rat); compound 0.1 µM): 90%
- residual activity (ROCK2 (rat); compound 1.0 µM): 82%
- residual activity (ROCK2 (rat); compound 10.0 µM): 63%
- residual activity ([2]; compound 0.1 µM): 89%
- residual activity ([2]; compound 1.0 µM): 90%
- residual activity ([2]; compound 10.0 µM): 41%
- residual activity (PIM3 (human); compound 0.1 µM): 53%
- residual activity (PIM3 (human); compound 1.0 µM): 72%
- residual activity (PIM3 (human); compound 10.0 µM): 21%
- residual activity (EPHB4 (human); compound 0.1 µM): 15%
- residual activity (EPHB4 (human); compound 1.0 µM): 13%
- residual activity (EPHB4 (human); compound 10.0 µM): 4%
SMILES: Cc1ccc(Sc2cnc(Nc3cccc(Br)n3)s2)cc1C(=O)N1CCN(C(=O)CN)CC1
